Laboratory results taken from paper PMC9730296, “High-Throughput Steady-State Enzyme Kinetics Measured in a Parallel Droplet Generation and Absorbance Detection Platform” (Analytical Chemistry, 2022).

Test system: T1, SN243
T1 construct: purified
Assay: pNP release, absorbance […] nm in microfluidic droplets
Format: biochemical, metagenome: source not printed
Details: 100 mM Tris pH 8.0, 150 mM NaCl, room temperature, substrate in DMSO

Row | Structure (SMILES) | Km (mean of 12 datasets) [mM] | Km (detection points 1-4 only) [mM]
1 | O=C(O)C1OC(Oc2ccc([N+](=O)[O-])cc2)C(O)C(O)C1O (stereo not drawn) [pNP-β-GalA] | 1.6 ± 0.3 | –
2 | O=[N+]([O-])c1ccc(O[C@@H]2O[C@H](CO)[C@@H](O)[C@H](O)[C@H]2O)cc1 [pNP-β-Glc] | 36.8 ± 9 | –
3 | O=C(O)[C@H]1O[C@@H](Oc2ccc([N+](=O)[O-])cc2)[C@H](O)[C@@H](O)[C@@H]1O [pNP-β-GlcA] | – | 0.015
4 | O=[N+]([O-])c1ccc(O[C@@H]2OC[C@@H](O)[C@H](O)[C@H]2O)cc1 [pNP-β-Xyl] | 21.9 ± 1.6 | –
5 | O=[N+]([O-])c1ccc(O[C@@H]2O[C@H](CO)[C@H](O)[C@H](O)[C@H]2O)cc1 [pNP-β-Gal] | 75.8 ± 7.7 | –
